According to patent US9580390B2, “Indazole compounds as kinase inhibitors and method of treating cancer with same” (University Health Network, priority 2011, dated 2017):
Where two headings read alike, the source gives them in different places.

What was measured:
[1] = target: T1, human TTK (Homo sapiens, UniProt P33981); experiment: TTK inhibition assay (indirect ELISA); format: biochemical
T1 construct: amino terminal GST fusion of full length human TTK; purchased Invitrogen
T1 sequence (P33981 1-857): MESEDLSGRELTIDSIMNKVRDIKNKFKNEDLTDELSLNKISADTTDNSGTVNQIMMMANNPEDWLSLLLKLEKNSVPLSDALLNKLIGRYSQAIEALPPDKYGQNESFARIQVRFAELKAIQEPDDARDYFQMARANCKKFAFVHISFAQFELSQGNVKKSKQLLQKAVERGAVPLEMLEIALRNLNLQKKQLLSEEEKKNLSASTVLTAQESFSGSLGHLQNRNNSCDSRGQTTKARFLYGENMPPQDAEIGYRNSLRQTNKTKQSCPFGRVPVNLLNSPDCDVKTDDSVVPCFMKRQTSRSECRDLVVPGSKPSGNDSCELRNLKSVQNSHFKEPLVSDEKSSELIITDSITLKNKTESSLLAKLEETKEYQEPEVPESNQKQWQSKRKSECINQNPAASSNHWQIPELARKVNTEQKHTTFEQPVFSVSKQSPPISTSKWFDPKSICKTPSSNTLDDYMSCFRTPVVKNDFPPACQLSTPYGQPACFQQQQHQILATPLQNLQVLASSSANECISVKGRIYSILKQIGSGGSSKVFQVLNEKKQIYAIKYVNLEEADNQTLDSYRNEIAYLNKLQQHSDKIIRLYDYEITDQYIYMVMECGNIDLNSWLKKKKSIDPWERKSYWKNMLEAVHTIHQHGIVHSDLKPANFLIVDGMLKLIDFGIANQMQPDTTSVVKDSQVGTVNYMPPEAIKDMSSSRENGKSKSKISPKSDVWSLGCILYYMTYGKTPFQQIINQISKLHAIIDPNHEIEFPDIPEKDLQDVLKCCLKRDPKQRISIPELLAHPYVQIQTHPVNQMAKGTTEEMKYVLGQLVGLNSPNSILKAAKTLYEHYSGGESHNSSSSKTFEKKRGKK
Experimental: Active TTK was purchased from Invitrogen as an amino terminal GST fusion of full length human TTK. Amino terminal 6 histidine, sumo tagged human TTK (residues 1-275) was expressed in E. coli, and purified to >95% homogeneity by Ni^2+ agarose, gel filtration, and ion exchange chromatography.
TTK activity was measured using an indirect ELISA detection system. GST-TTK (0.68 nM) was incubated in the presence of 16 μM ATP (Sigma cat# A7699), 50 mM Hepes pH 7.2, 1 mM EGTA, 10 mM MgCl2, and 0.1% Pluronic in a 96 well microtitre plate pre-coated with amino terminal 6 histidine, sumo tagged TTK (amino acid residues 1-275). The reaction was allowed to proceed for 30 minutes, followed by 5 washes of the plate with Wash Buffer (phosphate buffered saline supplemented with 0.2% Tween 20), and incubation for 30 minutes with a 1:3000 dilution of primary antibody (Cell Signaling cat# 9381). The plate was washed 5 times with Wash Buffer, incubated for 30 minutes in the presence of secondary antibody coupled to horse radish peroxidase (BioRad cat# 1721019, 1:3000 concentration), washed an additional 5 times with Wash Buffer, and incubated in the presence of TMB substrate (Sigma cat# T0440). The colourimetric reaction was allowed to continue for 5 minutes, followed by addition of stop solution (0.5 N sulphuric acid), and quantified by detection at 450 nm with either a monochromatic or filter based plate reader (Molecular Devices M5 or Beckman DTX880, respectively).
Compounds were pre-incubated in the presence of enzyme for 5 minutes prior to addition of ATP and the activity remaining quantified using the above described activity assay. The % Inhibition of a compound was determined using the following formula: % Inhibition=100×(1−(experimental value−background value)/(high activity control−background value)). The IC50 value was determined using a non-linear 4 point logistic curve fit (XLfit4, IDBS) with the formula: (A+(B/(1+((x/C)^D)))), where A=background value, B=range, C=inflection point, D=curve fit parameter.

[2] = tested on: colon cancer cells (HCT116); experiment: Cancer cell line growth inhibition (SRB assay); format: cell-based; details: read-out: Cancer Cell Line GI50 Range HCT116
[3] = tested on: TICs (Colon 12); experiment: Colon tumor-initiating cell growth inhibition (Alamar Blue); format: cell-based; details: 9 days, read-out: Tumor Initiating Cell GI50 Range Colon 12
[4] = tested on: TICs (Ovarian 2393A); experiment: Ovarian tumor-initiating cell growth inhibition (Alamar Blue); format: cell-based; details: 6 days, read-out: Tumor Initiating Cell GI50 Range Ovarain 2393A
Text: Materials and Methods: Non-tissue or tissue cultured treated T-75 flask and 96-well plates were purchased from VWR. Vitamin B-27 supplement, MEM NEAA (minimum essential medium non essential amino acids), sodium pyruvate, L-glutamine, N2 supplement, penicillin-streptomycin and fungizone/amphotericin B were obtained from Invitrogen. Lipid mixture, heparin and EGF were purchased from Sigma; bFGF from BD Biosciences. Tumor Initiating Cells (TICs) from colon were routinely maintained using non-tissue cultured treated T-75 flasks in DMEM:F12 medium containing 0.2×B-27 supplement, 4 ug/ml heparin, 1×MEM NEAA, 1× sodium pyruvate, 1 mM glutamine, 10 pg/ul bFGF, 20 pg/ul EGF, 1×N2 supplement, lipid mixture, penicillin-streptomycin and fungizone/amphotericin B. Ovarian TICs were routinely maintained using tissue cultured treated T-75 flasks in DMEM:F12 medium containing 1×B-27 supplement, 4 ug/ml heparin, 20 pg/ul bFGF, 20 pg/ul EGF and penicillin-streptomycin.
Assay Protocol: Compounds described herein were dissolved in DMSO and further diluted in cell culture medium for GI50 determination. Colon TICs were trypsinized and seeded into non-tissue cultured treated 96-well plates with 4,000 cells/well. After 24 h, compound was added into the cell culture at different concentrations, and the final concentration of DMSO was adjusted to 0.1%. Cells were then cultured at 37° C. for 9 days. Ovarian TICs were trypsinized and seeded into tissue cultured treated 96-well plates with 1,000 cells/well. After 24 h, compound was added into the cell culture at different concentrations, and the final concentration of DMSO was adjusted to 0.1%. Cells were then cultured at 37° C. for 6 days. Cell viability was assessed by Alamar Blue assay: 10 ul of Alamar Blue was added into each well. After 4 hours incubation at 37° C., fluorescence was recorded at excitation 544 and emission 590. GI50 (Growth inhibition) was calculated using GraphPad Prism 4.0 software.

[5] = tested on: ovarian cancer cells (PA-1); experiment: Cancer cell line growth inhibition (SRB assay); format: cell-based; details: read-out: Cancer Cell Line GI50 Range PA-1
[6] = Homo sapiens, HCT-116, HCT116 colon cancer cells, SRB assay
[7] = 144 h, ovarian TICs, Alamar Blue

Compound	IC50 ([1]; read-out: TTK IC50 Range) [nM]	GI50 ([2]; Homo sapiens, HCT-116) [nM]	GI50 ([5]; Homo sapiens, PA-1) [nM]	GI50 ([3]; 216 h, Colon 12 TICs) [nM]	GI50 ([4]; 144 h, Ovarian 2393A TICs) [nM]	further results
CN1CCC(Nc2ccc(-c3n[nH]c4ccc(NC(=O)C(c5ccsc5)N5CCCC5)cc34)cc2)CC1 (centres unmarked) [Example A25]	< 100					GI50 ([2]; HCT116 colon cancer cells, SRB assay): < 100 nM; GI50 ([3]; colon TICs, Alamar Blue): 100 to 500 nM; GI50 ([4]; ovarian TICs, Alamar Blue): < 100 nM
COCCN1CCC(Oc2ccc(-c3n[nH]c4ccc(C(=O)N[C@H](c5cccs5)C5CC5)cc34)cc2)CC1 [Example A163]	< 100					GI50 [2, 6]: < 100 nM; GI50 ([5]; PA-1 ovarian cancer cells, SRB assay): < 100 nM; GI50 ([3]; 216 h, colon TICs, Alamar Blue): 100 to 500 nM; GI50 [4, 7]: 100 to 500 nM
O=CN1CCC(Oc2ccc(-c3n[nH]c4ccc(C(=O)N[C@H](c5ncccc5Cl)C5CC5)cc34)cc2)CC1 [Example A212, (S)-N-((3-chloropyridin-2-yl)(cyclopropyl)methyl)-3-(4-((1-formylpiperidin-4-yl)oxy)phenyl)-1H-indazole-5-carboxamide]		< 100	< 100	100 to 500	< 100	
CN1[C@@H]2CC[C@H]1C[C@@H](Oc1ccc(-c3n[nH]c4ccc(C(=O)N[C@H](c5ccccn5)C5CC5)cc34)cc1)C2 [Example A213, N-((S)-cyclopropyl(pyridin-2-yl)methyl)-3-(4-(((1R,3R,5S)-8-methyl-8-azabicyclo[3.2.1]octan-3-yl)oxy)phenyl)-1H-indazole-5-carboxamide]		< 100	< 100	> 500	< 100	
CN1CCC(Oc2ccc(-c3n[nH]c4ccc(C(=O)N[C@H](c5ccccn5)C5CC5)cc34)cc2)CC1 [Example A214, (S)-N-(cyclopropyl(pyridin-2-yl)methyl)-3-(4-((1-methylpiperidin-4-yl)oxy)phenyl)-1H-indazole-5-carboxamide]		< 100	< 100	> 500	< 100	
O=C(N[C@@H](c1ncccc1Cl)C1CC1)c1ccc2[nH]nc(-c3ccc(OC4CCN(C5COC5)CC4)cc3)c2c1 [Example A215, (R)-N-((3-chloropyridin-2-yl)(cyclopropyl)methyl)-3-(4-((1-(oxetan-3-yl)piperidin-4-yl)oxy)phenyl)-1H-indazole-5-carboxamide]		< 100	< 100	< 100	100 to 500	
O=C(N[C@H](c1ncccc1Cl)C1CC1)c1ccc2[nH]nc(-c3ccc(OC4CCN(C5COC5)CC4)cc3)c2c1 [Example A216, (S)-N-((3-chloropyridin-2-yl)(cyclopropyl)methyl)-3-(4-((1-(oxetan-3-yl)piperidin-4-yl)oxy)phenyl)-1H-indazole-5-carboxamide]		< 100	< 100	< 100	< 100	
CC(C)(O)CN1CCC(Oc2ccc(-c3n[nH]c4ccc(C(=O)N[C@H](c5ccccn5)C5CC5)cc34)cc2)CC1 [Example A217, (S)-N-(cyclopropyl(pyridin-2-yl)methyl)-3-(4-((1-(2-hydroxy-2-methylpropyl)piperidin-4-yl)oxy)phenyl)-1H-indazole-5-carboxamide]	< 100	< 100	< 100	100 to 500	100 to 500	
C[C@@H](O)CN1CCC(Oc2ccc(-c3n[nH]c4ccc(C(=O)N[C@H](c5ccccn5)C5CC5)cc34)cc2)CC1 [Example A221, N-((S)-cyclopropyl(pyridin-2-yl)methyl)-3-(4-((1-((R)-2-hydroxypropyl)piperidin-4-yl)oxy)phenyl)-1H-indazole-5-carboxamide]	< 100	< 100	< 100	100 to 500	100 to 500	
CC(C)C[C@H](NC(=O)c1ccc2[nH]nc(-c3ccc(N4C5CCC4CC(O)C5)cc3)c2c1)c1ccccn1 (stereo partly drawn) [Example A301, 3-(4-((1R,3S,5S)-3-hydroxy-8-azabicyclo[3.2.1]octan-8-yl)phenyl)-N-((S)-3-methyl-1-(pyridin-2-yl)butyl)-1H-indazole-5-carboxamide]		< 100	< 100	< 100	< 100	IC50 [1]: < 100 nM
CC(C)C[C@@H](NC(=O)c1ccc2[nH]nc(-c3ccc(N4C5CCC4CC(O)C5)cc3)c2c1)c1ccccn1 (stereo partly drawn) [Example A305, 3-(4-((1R,3R,5S)-3-hydroxy-8-azabicyclo[3.2.1]octan-8-yl)phenyl)-N-((R)-3-methyl-1-(pyridin-2-yl)butyl)-1H-indazole-5-carboxamide]		< 100	< 100	< 100	< 100	IC50 [1]: < 100 nM
O=C(N[C@H](c1ccccn1)C1CC1)c1ccc2[nH]nc(-c3ccc(N4C5CCC4CC(O)C5)cc3)c2c1 (stereo partly drawn) [Example A307, N-((S)-cyclopropyl(pyridin-2-yl)methyl)-3-(4-((1R,3R,5S)-3-hydroxy-8-azabicyclo[3.2.1]octan-8-yl)phenyl)-1H-indazole-5-carboxamide]	< 100					GI50 ([2]; HCT116): < 100 nM; GI50 ([5]; PA-1): < 100 nM; GI50 ([3]; Colon 12 TICs): 100 to 500 nM; GI50 ([4]; Ovarian 2393A TICs): 100 to 500 nM
O=C(N[C@H](c1ccccn1)C1CC1)c1ccc2[nH]nc(-c3ccc(OC4CC5CCC(C4)N5C4COC4)cc3)c2c1 (stereo partly drawn) [Example A320, N-((S)-cyclopropyl(pyridin-2-yl)methyl)-3-(4-(((1R,3R,5S)-8-(oxetan-3-yl)-8-azabicyclo[3.2.1]octan-3-yl)oxy)phenyl)-1H-indazole-5-carboxamide]	< 100	< 100	< 100	< 100	100 to 500	
O=CN1C2CCC1CC(Oc1ccc(-c3n[nH]c4ccc(C(=O)N[C@H](c5ccccn5)C5CC5)cc34)cc1)C2 (stereo partly drawn) [Example A322, N-((S)-cyclopropyl(pyridin-2-yl)methyl)-3-(4-(((1R,3R,5S)-8-formyl-8-azabicyclo[3.2.1]octan-3-yl)oxy)phenyl)-1H-indazole-5-carboxamide]	< 100	< 100	< 100	< 100	< 100	
O=CN1C2CCC1CC(Oc1ccc(-c3n[nH]c4ccc(C(=O)N[C@H](c5ccccc5)C5CC5)cc34)cc1)C2 (stereo partly drawn) [Example A328, N-((S)-cyclopropyl(phenyl)methyl)-3-(4-(((1R,3R,5S)-8-formyl-8-azabicyclo[3.2.1]octan-3-yl)oxy)phenyl)-1H-indazole-5-carboxamide]	< 100	< 100	< 100	< 100	100 to 500	
O=CN1[C@@H]2CC[C@H]1C[C@@H](Oc1ccc(-c3n[nH]c4ccc(C(=O)NC(c5ccsc5)C5CCC5)cc34)cc1)C2 (stereo partly drawn) [Example A329, N-(cyclobutyl(thiophen-3-yl)methyl)-3-(4-(((1R,3R,5S)-8-formyl-8-azabicyclo[3.2.1]octan-3-yl)oxy)phenyl)-1H-indazole-5-carboxamide]	< 100	< 100	< 100	< 100	< 100	
CC(C)[C@H](NC(=O)c1ccc2[nH]nc(-c3ccc(OC4CCN(C5COC5)CC4)cc3)c2c1)c1ccccc1Cl [Example A332, (S)-N-(1-(2-chlorophenyl)-2-methylpropyl)-3-(4-((1-(oxetan-3-yl)piperidin-4-yl)oxy)phenyl)-1H-indazole-5-carboxamide]	< 100	< 100	< 100	< 100	< 100	
CN1CCC(Oc2ccc(-c3n[nH]c4ccc(C(=O)NCC5(N6CCOCC6)CCCCC5)cc34)cc2)CC1 [Example A449, 3-(4-((1-methylpiperidin-4-yl)oxy)phenyl)-N-((1-morpholinocyclohexyl)methyl)-1H-indazole-5-carboxamide]	< 100					GI50 [2, 6]: < 100 nM; GI50 ([3]; 216 h, colon TICs, Alamar Blue): < 100 nM; GI50 [4, 7]: 100 to 500 nM
